In US11325899B2, “Benzofurane and benzothiophene derivatives as PGE2 receptor modulators” (IDORSIA PHARMACEUTICALS LTD, priority 2017, dated 2022):

Assays:
[1] = target: T1, EP4 receptor (Homo sapiens, UniProt P35408); test: hEP4 cAMP assay (BT549 breast cancer cells, HTRF cAMP, PGE2 stimulation); type: cell-based; conditions: antagonistic activity, PGE2 6 nM (EC80)
T1 construct: BT549 breast cancer cells, express high endogenous EP4 levels and very low EP2 levels; host or cells: BT549 breast cancer cells
T1 sequence (P35408 whole entry): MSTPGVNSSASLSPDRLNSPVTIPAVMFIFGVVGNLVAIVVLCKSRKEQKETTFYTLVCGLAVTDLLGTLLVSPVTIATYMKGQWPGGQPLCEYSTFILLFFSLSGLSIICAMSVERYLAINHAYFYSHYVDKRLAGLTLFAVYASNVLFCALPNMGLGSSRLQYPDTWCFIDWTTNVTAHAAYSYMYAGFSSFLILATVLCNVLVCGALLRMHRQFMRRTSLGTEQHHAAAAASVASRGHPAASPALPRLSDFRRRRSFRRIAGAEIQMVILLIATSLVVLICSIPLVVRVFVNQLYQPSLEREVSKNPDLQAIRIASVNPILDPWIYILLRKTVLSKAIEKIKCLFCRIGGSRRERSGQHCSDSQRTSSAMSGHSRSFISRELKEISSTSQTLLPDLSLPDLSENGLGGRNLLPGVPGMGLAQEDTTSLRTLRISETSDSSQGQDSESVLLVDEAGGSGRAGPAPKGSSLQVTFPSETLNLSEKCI
In short: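 BT549 cells, with endogenous EP4 and very low EP2, were preincubated 45 min at room temperature with compound in HBSS/HEPES/BSA buffer with 2 mM IBMX. They were then stimulated 30 min with 6 nM PGE2 (EC80). cAMP was measured by HTRF competitive immunoassay against a calibrator; IC50 from duplicate dose-response as % of DMSO control.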

[2] = target: T2, PTGER4 (EP4) (Homo sapiens, UniProt P35408); test: hEP4 b-arrestin assay (PathHunter HEK 293 PTGER4 b-arrestin cells); type: cell-based; conditions: antagonistic activity, beta-arrestin assay; read-out: hEP4 b-arr IC50
T2 construct: host or cells: HEK 293 (PathHunter PTGER4 b-arrestin cell line)
T2 sequence (P35408 whole entry): as above
In short: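 PathHunter HEK 293 cells expressing ProLink-tagged human EP4 and EA-β-arrestin 2, seeded 24 h before. Compounds (10 μM–2 nM or 1 μM–0.2 nM) preincubated 15 min at 37 °C, then 20 nM PGE2 (EC80) for 120 min at 37 °C. β-gal complementation luminescence read; IC50 from duplicate dose-response curves versus DMSO control.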

Row | IC50 [1] [nM] | IC50 [2] [nM] | SMILES
1 | 985 | 394 | CCOc1cc(-c2cc(NCCc3c(C)oc4c(OC)cc(Cl)cc34)ncn2)ccc1C(=O)O [Example 70, 4-{6-[2-(5-Chloro-7-methoxy-2-methyl-benzofuran-3-yl)-ethylamino]-pyrimidin-4-yl}-2-ethoxy-benzoic acid]
2 | 1590 | 2250 | CCOc1cc(-c2cc(NCCc3c(C)sc4ccccc34)ncn2)ccc1C(=O)O [Example 72, 2-Ethoxy-4-{6-[2-(2-methyl-benzo[b]thiophen-3-yl)-ethylamino]-pyrimidin-4-yl}-benzoic acid]
3 | 111 | 101 | COc1cc(Cl)cc2c(CCNc3cc(-c4ccc(C(=O)O)c(OC5CC5)c4)ncn3)c(C)oc12 [Example 83, 4-{6-[2-(5-Chloro-7-methoxy-2-methyl-benzofuran-3-yl)-ethylamino]-pyrimidin-4-yl}-2-cyclopropoxy-benzoic acid]
4 | 117 | 80 | COc1ccc(F)c2c(CCNc3cc(-c4ccc(C(=O)O)c(OC5CC5)c4)ncn3)c(C)sc12 [Example 84, 2-Cyclopropoxy-4-{6-[2-(4-fluoro-7-methoxy-2-methyl-benzo[b]thiophen-3-yl)-ethylamino]-pyrimidin-4-yl}-benzoic acid]
5 | 258 | 374 | COc1cc(F)c(F)c2c(CCNc3cc(-c4ccc(C(=O)O)c(OC5CC5)c4)ncn3)c(C)oc12 [Example 85, 2-Cyclopropoxy-4-{6-[2-(4,5-difluoro-7-methoxy-2-methyl-benzofuran-3-yl)-ethylamino]-pyrimidin-4-yl}-benzoic acid]
6 | 289 | 4520 | Cc1sc2c(C)cc(F)cc2c1CCNc1cc(-c2ccc(C(=O)O)c(OCCO)c2)ncn1 [Example 86, 4-{6-[2-(5-fluoro-2,7-dimethyl-benzo[b]thiophen-3-yl)-ethylamino]-pyrimidin-4-yl}-2-(2-hydroxy-ethoxy)-benzoic acid]
7 | 451 | 318 | CCCSc1cc(-c2cc(NCCc3c(C)sc4c(C)cccc34)ncn2)ccc1C(=O)O [Example 87, 4-{6-[2-(2,7-Dimethyl-benzo[b]thiophen-3-yl)-ethylamino]-pyrimidin-4-yl}-2-propylsulfanyl-benzoic acid]
8 | 48 | 111 | Cc1sc2c(C)cc(F)cc2c1CCNc1cc(-c2ccc(C(=O)O)c(OC3CC3)c2)ncn1 [Example 195, 2-Cyclopropoxy-4-{6-[2-(5-fluoro-2,7-dimethyl-benzo[b]thiophen-3-yl)-ethylamino]-pyrimidin-4-yl}-benzoic acid]
9 | 100 | 99 | Cc1sc2c(C)cc(F)cc2c1CCNc1cc(-c2ccc(CC(=O)O)c(OC3CC3)c2)ncn1 [Example 196, (2-Cyclopropoxy-4-{6-[2-(5-fluoro-2,7-dimethyl-benzo[b]thiophen-3-yl)-ethylamino]-pyrimidin-4-yl}-phenyl)-acetic acid]

The remaining lines, values behind:

Row | SMILES | IC50 [1] [nM] | IC50 [2] [nM]
10 | CCOc1cc(-c2cc(NCCc3c(C)oc4c(C)cc(F)cc34)ncn2)ccc1C(=O)O [Example 69, 2-Ethoxy-4-{6-[2-(5-fluoro-2,7-dimethyl-benzofuran-3-yl)-ethylamino]-pyrimidin-4-yl}-benzoic acid] | 760 | 668
11 | CCOc1cc(-c2cc(NCCc3c(C)oc4c(Cl)cc(Cl)cc34)ncn2)ccc1C(=O)O [Example 71, 4-{6-[2-(5,7-Dichloro-2-methyl-benzofuran-3-yl)-ethylamino]-pyrimidin-4-yl}-2-ethoxy-benzoic acid] | 1030 | 958
12 | CCOc1cc(-c2cc(NCCc3c(Cl)sc4ccccc34)ncn2)ccc1C(=O)O [Example 75, 4-{6-[2-(2-chloro-benzo[b]thiophen-3-yl)-ethylamino]-pyrimidin-4-yl}-2-ethoxy-benzoic acid] | 1160 | 4300
13 | Cc1sc2c(C)cccc2c1CCNc1cc(-c2ccc3c(C(=O)O)coc3c2)ncn1 [Example 76, 6-{6-[2-(2,7-Dimethyl-benzo[b]thiophen-3-yl)-ethylamino]-pyrimidin-4-yl}-benzofuran-3-carboxylic acid] | 523 | 1140
14 | Cc1sc2c(C)cccc2c1CCNc1cc(-c2ccc3cc(C(=O)O)oc3c2)ncn1 [Example 77, 6-{6-[2-(2,7-Dimethyl-benzo[b]thiophen-3-yl)-ethylamino]-pyrimidin-4-yl}-benzofuran-2-carboxylic acid] | 130 | 1310
15 | Cc1sc2c(C)cc(F)cc2c1CCNc1cc(-c2ccc(-c3nc(=O)[nH]o3)cc2)ncn1 [Example 79, 5-(4-{6-[2-(5-Fluoro-2,7-dimethyl-benzo[b]thiophen-3-yl)-ethylamino]-pyrimidin-4-yl}-phenyl)-[1,2,4]oxadiazol-3(2H)-one [tautomeric form: 5-(4-(6-((2-(5-fluoro-2,7-dimethylbenzo[b]thiophen-3-yl)ethyl)amino)pyrimidin-4-yl)phenyl)-[1,2,4]oxadiazol-3-ol]] | 91 | 263
16 | Cc1sc2c(C)cc(F)cc2c1CCNc1cc(-c2cc3c(C(=O)O)cccc3[nH]2)ncn1 [Example 82, 2-{6-[2-(5-Fluoro-2,7-dimethyl-benzo[b]thiophen-3-yl)-ethylamino]-pyrimidin-4-yl}-1H-indole-4-carboxylic acid] | 138 | 155
17 | CCCSc1cc(-c2cc(NCCc3c(C)sc4ccccc34)ncn2)ccc1C(=O)O [Example 88, 4-{6-[2-(2-Methyl-benzo[b]thiophen-3-yl)-ethylamino]-pyrimidin-4-yl}-2-propylsulfanyl-benzoic acid] | 695 | 1030
18 | CCCSc1cc(-c2cc(NCCc3c(C)oc4ccccc34)ncn2)ccc1C(=O)O [Example 89, 4-{6-[2-(2-Methyl-benzofuran-3-yl)-ethylamino]-pyrimidin-4-yl}-2-propylsulfanyl-benzoic acid] | 1140 | 1030
19 | Cc1sc2c(C)cccc2c1CCNc1cc(-c2ccc(C(=O)O)c(SC(C)C)c2)ncn1 [Example 90, 4-{6-[2-(2,7-Dimethyl-benzo[b]thiophen-3-yl)-ethylamino]-pyrimidin-4-yl}-2-isopropylsulfanyl-benzoic acid] | 338 | 247
20 | Cc1sc2ccccc2c1CCNc1cc(-c2ccc(C(=O)O)c(SC(C)C)c2)ncn1 [Example 91, 2-Isopropylsulfanyl-4-{6-[2-(2-methyl-benzo[b]thiophen-3-yl)-ethylamino]-pyrimidin-4-yl}-benzoic acid] | 539 | 843
21 | Cc1oc2ccccc2c1CCNc1cc(-c2ccc(C(=O)O)c(SC(C)C)c2)ncn1 [Example 92, 2-Isopropylsulfanyl-4-{6-[2-(2-methyl-benzofuran-3-yl)-ethylamino]-pyrimidin-4-yl}-benzoic acid] | 672 | 816
22 | CCc1cc(-c2cc(NCCc3c(C)sc4c(C)cc(F)cc34)ncn2)cc(C)c1CC(=O)O [Example 194, (2-Ethyl-4-{6-[2-(5-fluoro-2,7-dimethyl-benzo[b]thiophen-3-yl)-ethylamino]-pyrimidin-4-yl}-6-methyl-phenyl)-acetic acid] | 71 | 96
23 | CCOc1cc(-c2cc(NCCc3c(C)sc4c(C)cc(F)cc34)ncn2)ccc1-c1cc(O)no1 [Example 202, 5-(2-Ethoxy-4-{6-[2-(5-fluoro-2,7-dimethyl-benzo[b]thiophen-3-yl)-ethylamino]-pyrimidin-4-yl}-phenyl)-isoxazol-3-ol [tautomeric form: 5-(2-ethoxy-4-(6-((2-(5-fluoro-2,7-dimethylbenzo[b]thiophen-3-yl)ethyl)amino)pyrimidin-4-yl)phenyl)isoxazol-3(2H)-one]] | 297 | 100
